US4303657A, “Nitrohydroxyalkyl-substituted quinoxaxiline dioxides and alkanoic acid esters thereof” (International Minerals & Chemical Corp., priority 1979, dated 1981)
Values after ≈ are worked out from the molar mass of the structure shown.

What was measured:
[1] = Growth rate and feed efficiency of animals when included in the feed rations (statement); format: in vivo; conditions: in words
Excerpt: It is an embodiment of this invention to provide a method for promoting the growth of animals and improving their feed efficiency by administering to them a compound of this invention.
The method of administration of a compound of this invention is to incorporate it in the feed rations intended for the animal at a concentration of about 50-150 g/ton of feed, preferably about 100 g/ton. The animals are permitted to feed at liberty throughout the growth period. There are many specialized feed rations for different species of animals. The compounds of this invention can be used with any of the known rations.

[2] = Growth promotion and improved feed efficiency feeding test (rye diet); format: in vivo, male two-day-old broiler-type chicks; conditions: for Increase in feed efficiency / Increase in weight: over control group
Experimental: Growth promotion and improved feed efficiency were determined as follows:
Two groups of male two-day-old broiler-type chicks were placed into Petersime starter batteries and given feed and water ad libitum for the duration of each test. Each group was subdivided into six sub-groups with ten birds in each sub-group, thus providing sixty birds per group. One group received the basal feed ration, as given in Table 1 and served as a control. The other group receives the same ration, but in addition there was included P-2229 at a concentration of 100 g/ton. The basal ration was a rye diet which alters the microflora of the gut in the bird which results in a growth depressant effect. When a growth stimulant or promotant is added to the diet, the effect on the birds performance will be more apparent than if a corn base diet was used.
The test period was thirteen days. Individual live body weights and pen feed efficiencies were taken at 2 and 14 days of age.

[3] = test system: Aspergillus fumigatus; assay: Minimum inhibitory concentration, Aspergillus fumigatus; format: cell-based
[4] = test system: Shigella dysenteriae; assay: Minimum inhibitory concentration, Shigella dysenteriae; format: cell-based
[5] = test system: Streptococcus hemolyticus; assay: Minimum inhibitory concentration, Streptococcus hemolyticus; format: cell-based; conditions: Streptococcus pyogenes
[6] = test system: Mycobacterium ranae; assay: Minimum inhibitory concentration, Mycobacterium ranae; format: cell-based
[7] = test system: Pseudomonas aeruginosa; assay: Minimum inhibitory concentration, Pseudomonas aeruginosa; format: cell-based
[8] = test system: Pencillium sp.; assay: Minimum inhibitory concentration, Pencillium sp.; format: cell-based
[9] = test system: Aspergillus niger; assay: Minimum inhibitory concentration, Aspergillus niger; format: cell-based
[10] = test system: Escherichia coli; assay: Minimum inhibitory concentration, Escherichia coli; format: cell-based
[11] = test system: Staphylococcus aureus; assay: Minimum inhibitory concentration, Staphylococcus aureus; format: cell-based
[12] = test system: Pasteurella pseudotuberculosis; assay: microbe, parasite or virus in culture; format: cell-based; conditions: Yersinia pseudotuberculosis
[13] = test system: Candida albicans; assay: Minimum inhibitory concentration, Candida albicans; format: cell-based
[14] = Table 1, 100 g/ton in feed, 13 days
[15] = Table 2, feed consumed to weight gained, control 1.56
[16] = Table 2, test of Example 1 repeated, control 208.77
[17] = Table 3, feed consumed to weight gained, control 1.82
[18] = when tested in feed rations, in words

## CCC(COC(C)=O)(C(OC(C)=O)c1c[n+]([O-])c2ccccc2[n+]1[O-])[N+](=O)[O-] (stereo not drawn) [Example 12, 2-(1-acetoxy-2-acetoxymethyl-2-nitrobutyl)quinoxaline-1,4-dioxide]
[1]; present-tense example
  feed efficiency: increases the feed efficiency
  growth rate: improves the growth rate

## CCCC(C(O)c1c[n+]([O-])c2ccccc2[n+]1[O-])[N+](=O)[O-] (stereo not drawn) [Example 13, 2-(1-hydroxy-2-nitropentyl)quinoxaline-1,4-dioxide]
[1]; present-tense example
  feed efficiency: increases the feed efficiency
  growth rate: improves the growth rate

## CCC(C)(C(O)c1c[n+]([O-])c2ccccc2[n+]1[O-])[N+](=O)[O-] (stereo not drawn) [Example 14, 2-(1-hydroxy-2-methyl-2-nitrobutyl)quinoxaline-1,4-dioxide]
[1]; present-tense example
  feed efficiency: increases the feed efficiency
  growth rate: improves the growth rate

## O=[N+]([O-])C1(C(O)c2c[n+]([O-])c3ccccc3[n+]2[O-])CCCCC1 (stereo not drawn) [Example 15, α-(1-nitrocyclohexyl)-2-quinoxalinemethanol-1,4-dioxide]
[1]; present-tense example
  feed efficiency: increases the feed efficiency
  growth rate: improves the growth rate

## CCCC(C(OC(C)=O)c1c[n+]([O-])c2ccccc2[n+]1[O-])[N+](=O)[O-] (stereo not drawn) [Example 16, 2-(1-acetoxy-2-nitropentyl)quinoxaline-1,4-dioxide]
[1]; present-tense example
  feed efficiency: increases the feed efficiency
  growth rate: improves the growth rate

## CCC(C)(C(OC(C)=O)c1c[n+]([O-])c2ccccc2[n+]1[O-])[N+](=O)[O-] (stereo not drawn) [Example 17, 2-(1-acetoxy-2-methyl-2-nitrobutyl)quinoxaline-1,4-dioxide]
[1]; present-tense example
  feed efficiency: increases the feed efficiency
  growth rate: improves the growth rate

## CC(=O)OC(c1c[n+]([O-])c2ccccc2[n+]1[O-])C1([N+](=O)[O-])CCCCC1 (stereo not drawn) [Example 18]
[1]; present-tense example
  feed efficiency: increases the feed efficiency
  growth rate: improves the growth rate

## COC(=O)C(C(O)c1c[n+]([O-])c2ccccc2[n+]1[O-])[N+](=O)[O-] (stereo not drawn) [Example P-2229, methyl-α-nitro-β-hydroxy-2-quinoxalinepropionate-1,4-dioxide]
[2]; Table 1, 100 g/ton in feed, 13 days, control 208.73
  Body weight gain, av: 218.75 g
[2]; Table 1, feed consumed to weight gained, control 1.49
  feed efficiency: 1.48
[2]; [14]
  Increase in feed efficiency: 0.7%
  Increase in weight: 4.8%

## CC(C(O)c1c[n+]([O-])c2ccccc2[n+]1[O-])[N+](=O)[O-] (stereo not drawn) [Example P-2230, 2-(1-hydroxy-2-nitropropyl)quinoxaline-1,4-dioxide]
[2]; [15]
  feed efficiency: 1.45
[2]; Table 2
  Increase in feed efficiency: 7.1
  Increase in weight: 6.5%
[2]; [16]
  Body weight gain, av: 222.37 g

## O=[N+]([O-])CC(O)c1c[n+]([O-])c2ccccc2[n+]1[O-] (stereo not drawn) [Example P-2231, 2-(1-hydroxy-2-nitroethyl)-quinoxaline-1,4-dioxide]
[2]; [15]
  feed efficiency: 1.46
[2]; Table 2
  Increase in feed efficiency: 6.4
  Increase in weight: 6.1%
[2]; [16]
  Body weight gain, av: 221.54 g

## COC(=O)C(C(OC(C)=O)c1c[n+]([O-])c2ccccc2[n+]1[O-])[N+](=O)[O-] (stereo not drawn) [Example P-2236]
[2]; Table 4, control 97.33
  Body weight gain, av: 154.92 g
[2]; Table 4, feed consumed to weight gained, control 1.84
  feed efficiency: 1.56
[2]; Table 4
  Increase in feed efficiency: 15.2
  Increase in weight: 59.17%

## CC(=O)OC(c1c[n+]([O-])c2ccccc2[n+]1[O-])C(C)[N+](=O)[O-] (stereo not drawn) [Example P-2242, 2-(1-acetoxy-2-nitropropyl)quinoxaline-1,4-dioxide]
[2]; Table 5, control 165.7
  Body weight gain, av: 210.6 g
[2]; Table 5, feed consumed to weight gained, control 1.57
  feed efficiency: 1.48
[2]; Table 5
  Increase in feed efficiency: 5.7
  Increase in weight: 27.1%

## CC(=O)OC(C[N+](=O)[O-])c1c[n+]([O-])c2ccccc2[n+]1[O-] (stereo not drawn) [Example P-2243, 2-(1-acetoxy-2-nitroethyl)quinoxaline-1,4-dioxide]
[2]; Table 6, control 144.7
  Body weight gain, av: 240.5 g
[2]; Table 6, feed consumed to weight gained, control 1.69
  feed efficiency: 1.48
[2]; Table 6
  Increase in feed efficiency: 12.4
  Increase in weight: 66.2%

## CCC(C(O)c1c[n+]([O-])c2ccccc2[n+]1[O-])[N+](=O)[O-] (stereo not drawn) [Example P-2246, 2-(1-hydroxy-2-nitrobutyl)quinoxaline-1,4-dioxide]
[2]; Table 3, control 128.6
  Body weight gain, av: 194.7 g
[2]; [17]
  feed efficiency: 1.54
[2]; Table 3
  Increase in feed efficiency: 15.4
  Increase in weight: 51.4%

## CC(C)(C(O)c1c[n+]([O-])c2ccccc2[n+]1[O-])[N+](=O)[O-] (stereo not drawn) [Example P-2265, 2-(1-hydroxy-2-methyl-2-nitropropyl)quinoxaline-1,4-dioxide]
[2]; Table 3, control 128.6
  Body weight gain, av: 188.7 g
[2]; [17]
  feed efficiency: 1.59
[2]; Table 3
  Increase in feed efficiency: 12.6
  Increase in weight: 46.7%

## CCC(C(OC(C)=O)c1c[n+]([O-])c2ccccc2[n+]1[O-])[N+](=O)[O-] (stereo not drawn) [Example P-2277, 2-(1-acetoxy-2-nitrobutyl)quinoxaline-1,4-dioxide]
[1]
  feed efficiency: increases the feed efficiency
  growth rate: improves the growth rate

## CCC(CO)(C(O)c1c[n+]([O-])c2ccccc2[n+]1[O-])[N+](=O)[O-] (stereo not drawn) [Example P-2280, 2-(1-hydroxy-2-hydroxymethyl-2-nitrobutyl)quinoxaline-1,4-dioxide]
[3]
  MIC: 500 to 1000 µg/mL (≈ 1620 to 3230 µM)
[4]
  MIC: 500 to 1000 µg/mL (≈ 1620 to 3230 µM)
[5]
  MIC: 500 to 1000 µg/mL (≈ 1620 to 3230 µM)
[6]
  MIC: 50 to 100 µg/mL (≈ 162 to 323 µM)
[7]
  MIC: 500 to 1000 µg/mL (≈ 1620 to 3230 µM)
[8]
  MIC: 100 to 500 µg/mL (≈ 323 to 1620 µM)
[9]
  MIC: 100 to 500 µg/mL (≈ 323 to 1620 µM)
[10]
  MIC: 100 to 500 µg/mL (≈ 323 to 1620 µM)
[11]
  MIC: 500 to 1000 µg/mL (≈ 1620 to 3230 µM)
[12]
  MIC: 50 to 100 µg/mL (≈ 162 to 323 µM)
[13]
  MIC: 100 to 500 µg/mL (≈ 323 to 1620 µM)
[2]; [18]
  feed efficiency: improved efficiency
  growth rate: improved growth rate

## CC(=O)OC(c1c[n+]([O-])c2ccccc2[n+]1[O-])C(C)(C)[N+](=O)[O-] (stereo not drawn) [Example P-2284, 2-(1-acetoxy-2-methyl-2-nitropropyl)quinoxaline-1,4-dioxide]
[1]
  feed efficiency: increases the feed efficiency
  growth rate: improves the growth rate
